What was measured:
[1] = system: PFSK-1 (Other Solid Carcinomas); assay: Bliss excess, mean over the matrix (fraction); higher = more synergy
Procedure, shortened: (§1)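 Bliss excess equals the observed combination effect minus the expected value EA + EB − EA·EB, where EA and EB are the effects of each agent alone. Combination Emax is the second-highest inhibition within the matrix. Inhibition was scaled from CellTiter-Glo 2.0 luminescence, with 0 set by vehicle wells and 1 by blank wells, after 72 hours of two-drug dosing of cells plated in 1536-well plates.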

GOTO (Neuroblastoma) [2] = assay: as above
Procedure, shortened: as §1

NB7 (Neuroblastoma) [3] = assay: as above
Procedure, shortened: as §1

[4] = system: VMRC-LCD (Lung Adenocarcinoma); assay: as above
Procedure, shortened: as §1

[5] = system: KYSE-50 (Esophageal Squamous Cell Carcinoma); assay: as above
Procedure, shortened: as §1

A704 (Kidney Carcinoma) = assay: as above
Procedure, shortened: as §1

[6] = system: EMC-BAC-2 (Non-Small Cell Lung Carcinoma); assay: as above
Procedure, shortened: as §1

GOTO (Neuroblastoma) [7] = assay: combination Emax (second highest fraction inhibited in the dose matrix, 72 h); higher = more inhibition; extreme values may be limits of the assay
Procedure, shortened: as §1

EW-13 (Ewing's Sarcoma) = assay: as above
Procedure, shortened: as §1

[8] = system: OCUM-1 (Gastric Carcinoma); assay: as above
Procedure, shortened: as §1

[9] = system: NCI-H2405 (Lung Adenocarcinoma); assay: as above
Procedure, shortened: as §1

NB7 (Neuroblastoma) [10] = assay: as above
Procedure, shortened: as §1

[11] = system: TGBC11TKB (Gastric Carcinoma); assay: as above
Procedure, shortened: as §1

[12] = system: VMRC-LCD (Lung Adenocarcinoma); assay: as above
Procedure, shortened: as §1

[13] = system: DG-75 (Burkitt's Lymphoma); assay: as above
Procedure, shortened: as §1

[14] = system: HuP-T3 (Pancreatic Carcinoma); assay: as above
Procedure, shortened: as §1

[15] = system: NCI-H513 (Other Solid Carcinomas); assay: as above
Procedure, shortened: as §1

[16] = system: KYSE-50 (Esophageal Squamous Cell Carcinoma); assay: as above
Procedure, shortened: as §1

[17] = system: MFE-319 (Endometrial Carcinoma); assay: as above
Procedure, shortened: as §1

IMR-5 (Neuroblastoma) = assay: as above
Procedure, shortened: as §1

SMILES: CN(CCO)CC[C@H](CSc1ccccc1)Nc1ccc(S(=O)(=O)NC(=O)c2ccc(N3CCC([C@@H](O)c4ccccc4-c4ccc(Cl)cc4)CC3)cc2)cc1S(=O)(=O)C(F)(F)F [AZD4320] + C=CCn1c(=O)c2cnc(Nc3ccc(N4CCN(C)CC4)cc3)nc2n1-c1cccc(C(C)(C)O)n1 [AZD1775] (first compound max 1 µM, partner max 1 µM)
- Bliss excess [1]: 0.0344
- Bliss excess (GOTO (Neuroblastoma) [2]): -0.0268
- Bliss excess (NB7 (Neuroblastoma) [3]): 0.0051
- Bliss excess [4]: -0.0459
- Bliss excess [5]: -0.0682
- Bliss excess (A704 (Kidney Carcinoma)): 0.0138
- Bliss excess [6]: -0.0078
- combination Emax (GOTO (Neuroblastoma) [7]): 0.855
- combination Emax (EW-13 (Ewing's Sarcoma)): 0.665
- combination Emax [8]: 0.87
- combination Emax [9]: 0.193
- combination Emax (NB7 (Neuroblastoma) [10]): 0.689
- combination Emax [11]: 0.964
- combination Emax [12]: 0.562
- combination Emax [13]: 0.82
- combination Emax [14]: 0.412
- combination Emax [15]: 0.707
- combination Emax [16]: 0.476
- combination Emax [17]: 0.944
- combination Emax (IMR-5 (Neuroblastoma)): 0.983

SMILES: CC1(C)CCC(CN2CCN(c3ccc(C(=O)NS(=O)(=O)c4ccc(NCC5CCOCC5)c([N+](=O)[O-])c4)c(Oc4cnc5[nH]ccc5c4)c3)CC2)=C(c2ccc(Cl)cc2)C1 [Venetoclax] + C1CN(CCC1(C(=O)N[C@@H](CCO)C2=CC=C(C=C2)Cl)N)C3=NC=NC4=C3C=CN4 [Capivasertib] (first compound max 1 µM, 7x7, partner max 3 µM)
- Bliss excess [1]: 0.0634
- Bliss excess (GOTO (Neuroblastoma) [2]): 0.0111
- Bliss excess (NB7 (Neuroblastoma) [3]): -0.0301
- Bliss excess [4]: -0.0514
- Bliss excess [5]: -0.0418
- Bliss excess (A704 (Kidney Carcinoma)): -0.079
- Bliss excess [6]: -0.116
- combination Emax (GOTO (Neuroblastoma) [7]): 0.365
- combination Emax (EW-13 (Ewing's Sarcoma)): 0.213
- combination Emax [8]: 0.314
- combination Emax [9]: 0.187
- combination Emax (NB7 (Neuroblastoma) [10]): 0.056
- combination Emax [11]: 0.153
- combination Emax [12]: 0.193
- combination Emax [13]: 0.179
- combination Emax [14]: 0.166
- combination Emax [15]: 0.117
- combination Emax [16]: 0.17
- combination Emax [17]: 0.321
- combination Emax (IMR-5 (Neuroblastoma)): 0.19

SMILES: Cc1c2c(nn1C)CSCc1cc(n(C)n1)CSc1cc(c3ccccc3c1)OCCCc1c(C(=O)O)n(C)c3c-2c(Cl)ccc13 [AZD5991] + C[C@@H]1COCCN1C2=NC(=NC(=C2)C3(CC3)[S@](=N)(=O)C)C4=C5C=CNC5=NC=C4 [AZD6738] (first compound max 1 µM, 7x7, partner max 10 µM)
- Bliss excess [1]: 0.0139
- Bliss excess (GOTO (Neuroblastoma) [2]): -0.0213
- Bliss excess (NB7 (Neuroblastoma) [3]): 0.028
- Bliss excess [4]: 0.0179
- Bliss excess [5]: -0.0348
- Bliss excess (A704 (Kidney Carcinoma)): -0.0522
- Bliss excess [6]: 0.066
- combination Emax (GOTO (Neuroblastoma) [7]): 0.92
- combination Emax (EW-13 (Ewing's Sarcoma)): 0.805
- combination Emax [8]: 0.71
- combination Emax [9]: 0.353
- combination Emax (NB7 (Neuroblastoma) [10]): 0.918
- combination Emax [11]: 0.889
- combination Emax [12]: 0.559
- combination Emax [13]: 0.817
- combination Emax [14]: 0.666
- combination Emax [15]: 0.344
- combination Emax [16]: 0.643
- combination Emax [17]: 0.932
- combination Emax (IMR-5 (Neuroblastoma)): 1

SMILES: CC1(C)CCC(CN2CCN(c3ccc(C(=O)NS(=O)(=O)c4ccc(NCC5CCOCC5)c([N+](=O)[O-])c4)c(Oc4cnc5[nH]ccc5c4)c3)CC2)=C(c2ccc(Cl)cc2)C1 [Venetoclax] + C[C@@H](Nc1cc(F)cc(F)c1)c1cc(C(=O)N(C)C)cc2c(=O)cc(N3CCOCC3)oc12 [AZD8186] (first compound max 1 µM, 7x7, partner max 3 µM)
- Bliss excess [1]: 0.0015
- Bliss excess (GOTO (Neuroblastoma) [2]): -0.0334
- Bliss excess (NB7 (Neuroblastoma) [3]): -0.0235
- Bliss excess [4]: -0.0457
- Bliss excess [5]: -0.0295
- Bliss excess (A704 (Kidney Carcinoma)): -0.0162
- Bliss excess [6]: -0.0393
- combination Emax (GOTO (Neuroblastoma) [7]): 0.305
- combination Emax (EW-13 (Ewing's Sarcoma)): 0.322
- combination Emax [8]: 0.137
- combination Emax [9]: 0.0892
- combination Emax (NB7 (Neuroblastoma) [10]): 0.295
- combination Emax [11]: 0.203
- combination Emax [12]: 0.093
- combination Emax [13]: 0.386
- combination Emax [14]: 0.119
- combination Emax [15]: 0.17
- combination Emax [16]: 0.18
- combination Emax [17]: 0.0342
- combination Emax (IMR-5 (Neuroblastoma)): 0.276

SMILES: NC1(C(=O)N[C@@H](CCO)c2ccc(Cl)cc2)CCN(c2ncnc3[nH]ccc23)CC1 [Capivasertib] + CC(C)n1c(=O)n(C)c2cnc3cc(F)c(-c4ccc(OCCCN5CCCCC5)nc4)cc3c21 [AZD1390] (first compound max 10 µM, 7x7, partner max 0.3 µM)
- Bliss excess [1]: -0.0598
- Bliss excess (GOTO (Neuroblastoma) [2]): -0.0465
- Bliss excess (NB7 (Neuroblastoma) [3]): 0.0125
- Bliss excess [4]: -0.0297
- Bliss excess [5]: -0.0723
- Bliss excess (A704 (Kidney Carcinoma)): -0.0703
- Bliss excess [6]: -0.0761
- combination Emax (GOTO (Neuroblastoma) [7]): 0.433
- combination Emax (EW-13 (Ewing's Sarcoma)): 0.28
- combination Emax [8]: 0.571
- combination Emax [9]: 0.274
- combination Emax (NB7 (Neuroblastoma) [10]): 0.736
- combination Emax [11]: 0.13
- combination Emax [12]: 0.0998
- combination Emax [13]: 0.38
- combination Emax [14]: 0.163
- combination Emax [15]: 0.171
- combination Emax [16]: 0.14
- combination Emax [17]: 0.368
- combination Emax (IMR-5 (Neuroblastoma)): 0.161

SMILES: Cc1c2c(nn1C)CSCc1cc(n(C)n1)CSc1cc(c3ccccc3c1)OCCCc1c(C(=O)O)n(C)c3c-2c(Cl)ccc13 [AZD5991] + Cn1cnc2c(F)c(Nc3ccc(Br)cc3Cl)c(C(=O)NOCCO)cc21 [Selumetinib] (first compound max 1 µM, 7x7, partner max 3 µM)
- Bliss excess [1]: 0.0395
- Bliss excess (GOTO (Neuroblastoma) [2]): 0.0177
- Bliss excess (NB7 (Neuroblastoma) [3]): -0.0259
- Bliss excess [4]: -0.0229
- Bliss excess [5]: -0.0049
- Bliss excess (A704 (Kidney Carcinoma)): -0.106
- Bliss excess [6]: 0.0081
- combination Emax (GOTO (Neuroblastoma) [7]): 0.714
- combination Emax (EW-13 (Ewing's Sarcoma)): 0.338
- combination Emax [8]: 0.895
- combination Emax [9]: 0.483
- combination Emax (NB7 (Neuroblastoma) [10]): 0.536
- combination Emax [11]: 0.683
- combination Emax [12]: 0.174
- combination Emax [13]: 0.112
- combination Emax [14]: 0.462
- combination Emax [15]: 0.473
- combination Emax [16]: 0.292
- combination Emax [17]: 0.604
- combination Emax (IMR-5 (Neuroblastoma)): 0.983

SMILES: COc1nnc2ccc(N3CCC(c4ccc(OCCN5CCN(C)C(=O)[C@H]5C)cc4)CC3)nn12 [AZD5153] + C=CCn1c(=O)c2cnc(Nc3ccc(N4CCN(C)CC4)cc3)nc2n1-c1cccc(C(C)(C)O)n1 [AZD1775] (first compound max 1 µM, partner max 1 µM)
- Bliss excess [1]: -0.109
- Bliss excess (GOTO (Neuroblastoma) [2]): -0.0756
- Bliss excess (NB7 (Neuroblastoma) [3]): -0.0352
- Bliss excess [4]: -0.0025
- Bliss excess [5]: 0.0211
- Bliss excess (A704 (Kidney Carcinoma)): -0.0375
- Bliss excess [6]: -0.0014
- combination Emax (GOTO (Neuroblastoma) [7]): 0.919
- combination Emax (EW-13 (Ewing's Sarcoma)): 0.407
- combination Emax [8]: 0.511
- combination Emax [9]: 0.429
- combination Emax (NB7 (Neuroblastoma) [10]): 0.587
- combination Emax [11]: 0.831
- combination Emax [12]: 0.943
- combination Emax [13]: 0.905
- combination Emax [14]: 0.584
- combination Emax [15]: 0.437
- combination Emax [16]: 0.798
- combination Emax [17]: 0.741
- combination Emax (IMR-5 (Neuroblastoma)): 0.973

From the supplement of paper PMC11061612
